system: Beet Armyworm (Spodoptera exigua); test: Bioassay on Beet Armyworm (BAW), 128-well diet tray assay; format: in vivo; conditions: percent mortality of second instar larvae, 50 μg/cm^2 on artificial diet, five to seven days, 25° C.; Table 3
Experimental: Certain molecules disclosed in this document were tested against BAW and CEW and CL using procedures described in the following examples. In the reporting of the results, the “BAW & CEW & CL Rating Table” was used (See Table Section).
Bioassays on BAW (Spodoptera exigua)
Bioassays on BAW were conducted using a 128-well diet tray assay. one to five second instar BAW larvae were placed in each well (3 mL) of the diet tray that had been previously filled with 1 mL of artificial diet to which 50 μg/cm^2 of the test compound (dissolved in 50 μL of 90:10 acetone-water mixture) had been applied (to each of eight wells) and then allowed to dry. Trays were covered with a clear self-adhesive cover, and held at 25° C., 14:10 light-dark for five to seven days. Percent mortality was recorded for the larvae in each well; activity in the eight wells was then averaged. The results are indicated in the table entitled “Table 3: Assay Results” (See Table Section).

SMILES	BAW Rating
Cc1cc(/C=C/C(c2cc(Cl)cc(Cl)c2)C(F)(F)F)ccc1C(=O)NCC1CCCO1 (centres unmarked) [AC118]	A (50-100)
Cc1cc(/C=C/C(c2cc(Cl)cc(Cl)c2)C(F)(F)F)ccc1C(=O)NCc1ncccn1 (centres unmarked) [AC18]	A (50-100)
CN1CCC(NC(=O)c2ccc(/C=C/C(c3cc(Cl)c(Cl)c(Cl)c3)C(F)(F)F)cc2Br)CC1 (centres unmarked) [AC106, (E)-2-Bromo-N-(1-methylpiperidin-4-yl)-4-(4,4,4-trifluoro-3-(3,4,5-trichlorophenyl)but-1-en-1-yl)benzamide]	A (50-100)
FC(F)(F)C(/C=C/c1ccc(-n2cncn2)cc1)c1ccc(Cl)cc1 (centres unmarked) [DC4]	A (50-100)
Cc1cc(/C=C/C(c2cc(Cl)cc(Cl)c2)C(F)(F)F)ccc1C(=O)NCc1ccc(Cl)nc1 (centres unmarked) [AC7]	A (50-100)
Cc1cc(/C=C/C(c2cc(Cl)cc(Cl)c2)C(F)(F)F)ccc1C(=O)NCc1ccccn1 (centres unmarked) [AC12]	A (50-100)
O=C(NCc1ncc(/C=C/C(c2cc(Cl)c(Cl)c(Cl)c2)C(F)(F)F)cc1Cl)C1CC1 (centres unmarked) [CC45]	A (50-100)
C=CCNC(=S)NCc1ccc(/C=C/C(c2cc(Cl)c(Cl)c(Cl)c2)C(F)(F)F)cc1Cl (centres unmarked) [CC38]	A (50-100)
N#Cc1cc(/C=C/C(c2cc(Cl)c(Cl)c(Cl)c2)C(F)(F)F)ccc1-n1cnc(N)n1 (centres unmarked) [DC41, (E)-2-(3-Amino-1H-1,2,4-triazol-1-yl)-5-(4,4,4-trifluoro-3-(3,4,5-trichlorophenyl)but-1-en-1-yl)benzonitrile]	A (50-100)
CCNC(=S)NCc1ccc(/C=C/C(c2cc(Cl)c(Cl)c(Cl)c2)C(F)(F)F)cc1Cl (centres unmarked) [CC37, (E)-1-(2-Chloro-4-(4,4,4-trifluoro-3-(3,4,5-trichlorophenyl)but-1-en-1-yl)benzyl)-3-ethylthiourea]	A (50-100)
CC(=O)NCc1ccc(/C=C/C(c2cc(Cl)cc(Cl)c2)C(F)(F)F)cc1Cl (centres unmarked) [CC7, (E)-N-(2-Chloro-4-(3-(3,5-dichlorophenyl)-4,4,4-trifluorobut-1-en-1-yl)benzyl)acetamide]	A (50-100)
CCNC(=O)NCc1ccc(/C=C/C(c2cc(Cl)c(Cl)c(Cl)c2)C(F)(F)F)cc1Br (centres unmarked) [CC33]	A (50-100)
Cc1cc(/C=C/C(c2cc(Cl)cc(Cl)c2)C(F)(F)F)ccc1C(=O)NCc1cnc(Cl)s1 (centres unmarked) [AC15]	A (50-100)
O=C(NCc1ccc(/C=C/C(c2cc(Cl)c(Cl)c(Cl)c2)C(F)(F)F)cc1Cl)C1CC1 (centres unmarked) [CC11]	A (50-100)
O=C(CC(F)(F)F)NCc1ccc(/C=C/C(c2cc(Cl)c(Cl)c(Cl)c2)C(F)(F)F)cc1 (centres unmarked) [CC6]	A (50-100)
COc1cc(/C=C/C(c2cc(Cl)c(F)c(Cl)c2)C(F)(F)F)ccc1C(=O)NC1CS(=O)(=O)C1 (centres unmarked) [AC85]	A (50-100)
N#Cc1cc(/C=C/C(c2cc(Cl)c(Cl)c(Cl)c2)C(F)(F)F)ccc1-n1cnc(N(C(=O)C2CC2)C(=O)C2CC2)n1 (centres unmarked) [DC42, (E)-N-(1-(2-Cyano-4-(4,4,4-trifluoro-3-(3,4,5-trichlorophenyl)but-1-en-1-yl)phenyl)-1H-1,2,4-triazol-3-yl)-N-(cyclopropanecarbonyl)cyclopropanecarboxamide]	A (50-100)
N#Cc1cc(/C=C/C(c2cc(Cl)c(Cl)c(Cl)c2)C(F)(F)F)ccc1-n1cnc([N+](=O)[O-])n1 (centres unmarked) [DC40, (E)-2-(3-Nitro-1H-1,2,4-triazol-1-yl)-5-(4,4,4-trifluoro-3-(3,4,5-trichlorophenyl)but-1-en-1-yl)benzonitrile]	A (50-100)
O=C(NCc1ccc(/C=C/C(c2cc(Cl)c(Cl)c(Cl)c2)C(F)(F)F)cc1C(F)(F)F)C1CC1 (centres unmarked) [CC22]	A (50-100)
Cc1cc(/C=C/C(c2cc(Cl)c(F)c(Cl)c2)C(F)(F)F)ccc1C(=O)NCc1ccnc(Cl)c1 (centres unmarked) [AC54]	A (50-100)
O=C(CC(F)(F)F)NCc1ccc(/C=C/C(c2cc(Cl)c(Cl)c(Cl)c2)C(F)(F)F)cc1C(F)(F)F (centres unmarked) [CC24]	A (50-100)
C/C(=C\C(c1cc(Cl)cc(Cl)c1)C(F)(F)F)c1ccc(-n2cncn2)cc1 (centres unmarked) [DC68, (E)-1-(4-(4-(3,5-Dichlorophenyl)-5,5,5-trifluoropent-2-en-2-yl)phenyl)-1H-1,2,4-triazole]	A (50-100)
CS(=O)(=O)CCC(=O)NCc1ccc(/C=C/C(c2cc(Cl)c(Cl)c(Cl)c2)C(F)(F)F)cc1Cl (centres unmarked) [CC30, (E)-N-(2-Chloro-4-(4,4,4-trifluoro-3-(3,4,5-trichlorophenyl)but-1-en-1-yl)benzyl)-3-(methylsulfonyl)propanamide]	A (50-100)
N#Cc1cc(/C=C/C(c2cc(Cl)c(F)c(Cl)c2)C(F)(F)F)ccc1-n1cncn1 (centres unmarked) [DC35]	A (50-100)
N#CCN1CCC(NC(=O)c2ccc(/C=C/C(c3cc(Cl)c(Cl)c(Cl)c3)C(F)(F)F)cc2Br)CC1 (centres unmarked) [AC107]	B (More than 0-Less than 50)

SMILES	BAW Rating
FC(F)(F)CNC(=S)CNC(=S)c1ccc(/C=C/C(c2cc(Cl)c(Cl)c(Cl)c2)C(F)(F)F)cc1Br (centres unmarked) [AC90, (E)-2-Bromo-N-(2-thioxo-2-((2,2,2-trifluoroethyl)amino)ethyl)-4-(4,4,4-trifluoro-3-(3,4,5-trichlorophenyl)but-1-en-1-yl)benzothioamide]	A (50-100)
CCc1cc(/C=C/C(c2cc(Cl)c(F)c(Cl)c2)C(F)(F)F)ccc1C(=O)NCC(=O)NCC(F)(F)F (centres unmarked) [AC80]	A (50-100)
O=C(NC1CSC1)c1ccc(/C=C/C(c2cc(Cl)c(Cl)c(Cl)c2)C(F)(F)F)cc1Br (centres unmarked) [AC32]	A (50-100)
COc1cc(/C=C/C(c2cc(Cl)c(F)c(Cl)c2)C(F)(F)F)ccc1C(=O)NC1CSC1 (centres unmarked) [AC71]	A (50-100)
O=C(CC(F)(F)F)NC1CCc2cc(/C=C/C(c3cc(Cl)c(F)c(Cl)c3)C(F)(F)F)ccc21 (centres unmarked) [BC8]	A (50-100)
Fc1c(Cl)cc(C(/C=C/c2ccc3c(c2)CCC3NCCC(F)(F)F)C(F)(F)F)cc1Cl (centres unmarked) [BC10, (E)-5-(3-(3,5-Dichloro-4-fluorophenyl)-4,4,4-trifluorobut-1-en-1-yl)-N-(3,3,3-trifluoropropyl)-2,3-dihydro-1H-inden-1-amine]	A (50-100)
Cc1cc(/C=C/C(c2ccc(Cl)c(Cl)c2)C(F)(F)F)ccc1C(=O)NCc1ccc(Cl)nc1 (centres unmarked) [AC37]	A (50-100)
FC(F)(F)C(/C=C/c1ccc(-n2cncn2)c(Br)c1)c1cc(Cl)cc(Cl)c1 (centres unmarked) [DC47]	A (50-100)
Cc1cc(/C=C/C(c2cc(Cl)cc(Cl)c2)C(F)(F)F)ccc1C(=O)NCc1nc2ccccc2s1 (centres unmarked) [AC42]	A (50-100)
CCOC(=O)c1cc(/C=C/C(c2cc(Cl)cc(Cl)c2)C(F)(F)F)ccc1-n1cncn1 (centres unmarked) [DC60]	A (50-100)
O=C(NC1CS(=O)(=O)C1)c1ccc(/C=C/C(c2cc(Cl)cc(Cl)c2)C(F)(F)F)cc1F (centres unmarked) [AC83, (E)-4-(3-(3,5-Dichlorophenyl)-4,4,4-trifluorobut-1-en-1-yl)-N-(1,1-dioxidothietan-3-yl)-2-fluorobenzamide]	A (50-100)
Fc1ccc(C(/C=C/c2ccc(-n3cncn3)cc2)C(F)(F)F)cc1 (centres unmarked) [DC7]	A (50-100)
O=C(NC1CSC1)c1ccc(/C=C/C(c2cc(Cl)c(Cl)c(Cl)c2)C(F)(F)F)cc1Cl (centres unmarked) [AC29]	A (50-100)
O=C(Cc1ccc(Cl)nc1)NCc1ccc(/C=C/C(c2cc(Cl)c(Cl)c(Cl)c2)C(F)(F)F)cc1Cl (centres unmarked) [CC14]	A (50-100)
O=C(CC(F)(F)F)NCC(=O)n1ccc2cc(/C=C/C(c3cc(Cl)c(F)c(Cl)c3)C(F)(F)F)ccc21 (centres unmarked) [BC13, (E)-N-(2-(5-(3-(3,5-Dichloro-4-fluorophenyl)-4,4,4-trifluorobut-1-en-1-yl)-1H-indol-1-yl)-2-oxoethyl)-3,3,3-trifluoropropanamide]	A (50-100)
CCNC(=O)NCc1ccc(/C=C/C(c2cc(Cl)cc(Cl)c2)C(F)(F)F)cc1Cl (centres unmarked) [CC31, (E)-1-(2-Chloro-4-(3-(3,5-dichlorophenyl)-4,4,4-trifluorobut-1-en-1-yl)benzyl)-3-ethylurea]	B (More than 0-Less than 50)
Cc1cc(/C=C/C(c2cc(Cl)cc(Cl)c2)C(F)(F)F)ccc1C(=O)NCc1cncnc1 (centres unmarked) [AC39, 4-((E)-3-(3,5-Dichlorophenyl)-4,4,4-trifluorobut-1-enyl)-2-methyl-N-((pyrimidin-5-yl)methyl)benzamide]	A (50-100)
Cc1cc(/C=C/C(c2cc(Cl)cc(Cl)c2)C(F)(F)F)ccc1C(=O)NCc1nccn1C (centres unmarked) [AC50]	A (50-100)
CN(C)C(=O)NCc1ccc(/C=C/C(c2cc(Cl)c(Cl)c(Cl)c2)C(F)(F)F)cc1Cl (centres unmarked) [CC36, (E)-3-(2-Chloro-4-(4,4,4-trifluoro-3-(3,4,5-trichlorophenyl)but-1-en-1-yl)benzyl)-1,1-dimethylurea]	A (50-100)
O=C(CNC(=O)c1ccc(/C=C/C(c2cc(Cl)cc(Cl)c2)C(F)(F)F)cc1F)NCC(F)(F)F (centres unmarked) [AC62]	A (50-100)
O=C(CC(F)(F)F)NCc1ccc(/C=C\C(c2cc(Cl)c(Cl)c(Cl)c2)C(F)(F)F)cc1 (centres unmarked) [CC54, (Z)-3,3,3-Trifluoro-N-(4-(4,4,4-trifluoro-3-(3,4,5-trichlorophenyl)but-1-en-1-yl)benzyl)propanamide]	A (50-100)
CCNC(=O)NCc1ccc(/C=C/C(c2cc(Cl)c(Cl)c(Cl)c2)C(F)(F)F)cc1C(F)(F)F (centres unmarked) [CC32]	A (50-100)
O=C(CNC(=O)c1ccc(/C=C/C(c2cc(Cl)c(Cl)c(Cl)c2)C(F)(F)F)cc1Br)NCC(F)(F)F (centres unmarked) [AC66]	A (50-100)
Cc1cc(/C=C/C(c2cc(Cl)cc(Cl)c2)C(F)(F)F)ccc1C(=O)NCc1cnccn1 (centres unmarked) [AC43]	A (50-100)
O=C(CNC(=O)c1ccc(/C=C/C(c2cc(Cl)c(F)c(Cl)c2)C(F)(F)F)cc1F)NCC(F)(F)F (centres unmarked) [AC68]	A (50-100)

Reference: patent US9510592B2, “Pesticidal compositions and processes related thereto” (Dow AgroSciences LLC, priority 2012, dated 2016)
